Measurements: patent publication US20090137427A1, “Method for generating hypermutable organisms” (The John Hopkins University School of Medicine, priority 2000, published 2009)

Experiments:
Format in all cases: cell-based, human
[1] = test system: HCT116 cells cotransfected with polyPNP and pC9MLH constructs; test: MPD killing assay, MLH1 complementation; details: 300 μM
Text: The restoration of genetic stability and the subsequent imprint of an altered gene locus or loci is an important invention of this application for producing viable biological products, whereby altered biomolecules, cells or whole organisms with desired altered output traits are made genetically stable for long term use. To generate stable MMR defective cell lines that has or has not been exposed to chemical mutagens and selected for desired genetic changes, the introduction of a complementing MMR gene that can substitute for the mutated endogenous MMR gene locus is taught in this application. […] In this example, a mammalian expression vector is used that encodes for the functional MLH1 polypeptide (pC9MLH1) or an expression vector that encodes for a MLH1 cDNA with a premature stop codon (pC9MLHstop). These expression vectors contain a neomycin (neo) resistance gene that allows for selection of cells containing this vector. […] Cells were selected for 10 days in neo and Hyg and resistant clones were isolated and expanded. Cells were then cultured in the presence of MPD and counted for growth after 10 days. […]
For MPD killing assay, cells were plated at 2×10^4 cell/ml and 1 ml aliquots were plated in 24-well costar tissue culture dishes. […] Cells were grown for 10 days trypsinized and counted on hemocytometer using trypan blue exclusion. […]

[2] = test system: HCT116 cells expressing PNP; test: MPD killing assay; details: 50-300 μM, 10 days
Text: (§1) The use of cells with defective MMR repair due to defects of endogenous genes such as but not limited to the HCT116, DLD-1, and HEC-1-A cells lines (ref. 12, 25 and Kondo, et. al. J Biochem 125:818-825, 1999) can be useful for altering the genetic structure of genes to produce commercially viable variant molecules such as novel anti-microbial agents, bioactive growth factors or hormones, altered antibody structures, etc. The utility and value of such a cell is that once an altered gene structure has been produced, the integrity of this gene alteration can be preserved in the cell's genome by making the cell genetically stable via the introduction of a functional complementing MMR gene. […] The polyPNP gene encodes for a non-functional PNP gene. When the poly-A tract is randomly altered by genetic alterations due to defective MMR, the tract is randomly altered, allowing for the production of a functional PNP gene and polypeptide. PNP converts the non-toxic 9-(β-D-2-deoxy-erythro-pento-furanosyl)-6-methyl-purine prodrug (referred to as MPD) substrate to the toxic 6-methyl purine analog (referred to as MP) (Sorscher, E J, et. al. Gene Therapy 1:233-238, 1994). The polyPNP gene was engineered to contain a hemaglutinin epitope tag at the C-terminus to facilitate the detection of the encoded polypeptide via western blot analysis using an anti-HA antibody. The polyPNP gene was cloned into the pCEP4 expression vector, which has a hygromycin resistance (Hyg) gene for selection. A homologous gene called PNP was also made in which an in-frame polyA tract is cloned into the N-terminus of the gene as a positive control for PNP activity. Briefly, the MMR defective HCT116 cell line and the MMR proficient HEK293 cell line were transfected with the polyPNP, the PNP expression vector, or an empty pCEP4 vector. Cells were then selected for Hyg resistance and clones were isolated. Expanded cells were grown in the presence of increasing amounts of MPD (0, 1, 10, 50, 100, 300 μM) for 10 days. After treatment period, cells were counted by hemocytometer and trypan blue exclusion.
(§2) Cells were transfected with PNP and/or MLH1 expression vectors using liposomes following the manufacturer's protocol (Gibco/BRL). Stably transfected cell lines were generated that express empty vector, PNP or polyPNP by transfection followed by hygromycin selection. For complementation experiments, HCT116 cells were transfected with PNP/MLH1, PNP/MLH1stop, polyPNP/MLH1 or polyPNP/MLH1 stop at a 1:1 ratio using 5 μg of each plasmid and cells were selected for hygromycin and neomycin resistance. After 10 days, drug-resistant colonies were observed and picked for analysis.
(§3) For MPD killing assay, cells were plated at 2×10^4 cell/ml and 1 ml aliquots were plated in 24-well costar tissue culture dishes. For killing assays, cells were plated in 0, 1, 10, 50, 100, and 300 μM MPD in triplicate. Cells were grown for 10 days trypsinized and counted on hemocytometer using trypan blue exclusion. Data are presented as a mean+/−SD for each study.

[3] = test system: HEK293 cells expressing PNP; test: MPD killing assay; details: 50-300 μM, 10 days
Text: as §1, §2, §3

HCT116/polyPNP cells = test: MPD killing assay; details: 10 days
Text: as §1, §2, §3

HEK293/polyPNP cells = test: MPD killing assay; details: highest concentration (300 μM), 10 days
Text: as §1, §2, §3

HCT116 cells = test: β-gal positive foci in pCAROF-transfected MMR defective cells exposed to chemical mutagen; details: 10 μM for 8 hours, 1,000 cells/plate, grown 10 days, triplicate
Text: To enhance the rate of genetic mutations and produce cells with altered genes, RNA expression, or polypeptides, the use of MMR deficiency and chemical mutagens is a powerful tool to generate such diversity. The advantages of using MMR defective cells is that the decrease of this activity renders cells more resistant to the toxic effects of such compounds yet allows for the increase in genetic and phenotypic alterations of a host organism or cell. […] Cells that are genetically defective for MMR such as but not limited to HCT116, DLD-1, etc. or cells such as those described in example 1 and 2 that are made MMR defective by ectopic expression of a dominant negative allele is covered under this invention. Briefly, MMR proficient and deficient cells are incubated with a range (1 nm to 1 mM) of chemical mutagens for 1 hour to 24 hours at 37 C at 5% CO2 in growth medium. After incubation is complete, chemical mutagens are washed from medium and cells are grown in the presence of hypoxanthine, aminopterin, and […] to score for HPRT mutant cells as previously described (Walker, V E et. al. Mutat Res. 17:371-388, 1999.) and known to those skilled in the art. […] After 14 days, the numbers of HAT-resistant colonies are determined by counting under the microscope. […] Cells were grown for 10 days and scored for β-gal activity using methods described in EXAMPLE 1. […]

SMILES	decrease in total cell growth compared to medium alone ([1]; cells expressing MLH1 (pC9MLH1) plus polyPNP) [%]	reduction in cell growth compared to medium alone ([1]; cells transfected with MLHstop or empty vector and polyPNP) [%]	growth suppression [2] [%]	growth suppression [3] [%]	decrease in cell numbers (HCT116/polyPNP cells; 100 μM) [%]	decrease in cell numbers (HCT116/polyPNP cells; 300 μM) [%]	decrease in cell growth (in words) (HEK293/polyPNP cells)	number of β-gal positive foci (HCT116 cells)
Cc1ncnc2c1ncn2[C@H]1C[C@H](O)[C@@H](CO)O1 [MPD, 9-(β-D-2-deoxyerythropentofuranosyl)-6-methyl-purine]	2	35	100	100	20	30	no decrease in cell growth	
CCOS(C)(=O)=O [EMS, ethyl methanesulfonate]								205+/−18 per dish
